Results as given in patent publication US20220177446A1, “ALKYNE COMPOUNDS AS IRAK INHIBITORS, PREPARATION METHODS AND MEDICINAL USES THEREOF” (Eternity Bioscience Inc., priority 2020, published 2022).
Read-outs that look alike come from different tables or passages of the source.

How the values were obtained:
[1] = biological target: T1, full length human IRAK4 protein (Homo sapiens, UniProt Q9NWZ3); assay: IRAK4 Biochemical Assay (Promega ADP-Glo IRAK4 Kinase Enzyme System); settings: 3 nM enzyme, 250 μM ATP; for IC50: 2 μM MBP, 60 min at room temperature; for IRAK4 Biochemical Assay Max Inhibition (%): maximum inhibition
T1 construct: Purified full length human IRAK4 protein; purchased Signal Chem I12-10G-125
T1 sequence (Q9NWZ3 1-460): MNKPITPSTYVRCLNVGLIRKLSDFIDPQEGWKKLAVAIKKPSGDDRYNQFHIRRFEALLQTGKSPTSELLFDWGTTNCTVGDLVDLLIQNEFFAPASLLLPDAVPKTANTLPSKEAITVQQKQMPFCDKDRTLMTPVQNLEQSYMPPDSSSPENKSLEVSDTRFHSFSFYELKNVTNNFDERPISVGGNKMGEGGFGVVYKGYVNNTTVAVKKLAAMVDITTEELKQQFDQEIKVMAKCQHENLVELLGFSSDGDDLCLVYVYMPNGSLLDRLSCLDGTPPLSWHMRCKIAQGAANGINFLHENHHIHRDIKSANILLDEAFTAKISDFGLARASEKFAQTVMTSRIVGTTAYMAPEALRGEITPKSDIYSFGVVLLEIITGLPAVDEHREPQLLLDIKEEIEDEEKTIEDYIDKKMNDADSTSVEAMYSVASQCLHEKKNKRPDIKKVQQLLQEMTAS
Method: For the routine compound screening, an IRAK4 kinase assay was performed as follows using Promega ADP-Glo IRAK4 Kinase Enzyme System (Promega, Cat #2198-AD). Purified full length human IRAK4 protein (Signal Chem; Cat #I12-10G-125) was diluted to a concentration 6 nM in assay buffer (25 mM MOPS, pH 7.2, 12.5 mM β-glycerol-phosphate, 25 mM MgCl2, 5 mM EGTA, 2 mM EDTA, 0.0025% Brij-35, add 0.25 mM DTT to Kinase Assay Buffer prior to use) containing IRAK4 inhibitor at 2× the final concentration in 0.4% DMSO. The reaction was performed in PerkinElmer Proxiplate-384 plus white plate (Fisher Scientific, Cat #50-905-2761) and started by the addition of an equal volume of the assay buffer containing 4 μM native swine myelin basic protein (MBP) and 500 μM ATP to achieve a final concentration of 3 nM enzyme, 2 μM MBP, 250 μM ATP, 1× compound, and 0.2% DMSO. The kinase reaction was allowed to run for 60 min at room temperature (25-27° C.), then 5 μL of ADP-Glo was added to the reaction in each well followed by 40 minutes-incubation at RT. To detect converted […], 10 μL Detection Buffer was added into each well and Incubate at RT in dark for 30 minutes. Finally, luminescence was read using Tecan with 1000 ms of integration time. The luminescent signal positively correlates with ADP amount and kinase activity. Data was analyzed by GraphPad Prism and IC50 was calculated using function log(inhibitor) vs. response—Variable slope (four parameters). Percentage of inhibition was calculated as below:
(§1) % inhibition=(1−(Reading(Sample)−Reading(Negative Control))/(Reading(Positive Control)−Reading(Negative Control)))×100%
The 0% inhibition value comes from the Reading of Positive Control wells having 0 nM compound. The 100% inhibition value comes from the Reading of Negative Control wells having no IRAK4 kinase.

[2] = biological target: T2, IRAK4 (Homo sapiens, UniProt Q9NWZ3); assay: IRAK4 Human PBMC TNFα Cell Based Assay (AlphaLISA); settings: TNFα measured
T2 construct: host or cells: human peripheral blood mononuclear cells (PBMCs)
T2 sequence (Q9NWZ3 1-460): T1 sequence (Q9NWZ3 1-460)
Method: In this assay, serially diluted compounds were incubated with 1×10^4 human peripheral blood mononuclear cells (PBMCs) from STEMCELL (Cat #70025.1) per well of 384-well plate (Fisher Scientific; 50-905-2761) and cultured with TexMACS medium (Miltenyi, Cat #130-097-196), stimulated by R848 (0.5 μM) or IL-1β (10 ng/ml). Plates were covered with lids and incubated for 4 h (R848, Fisher Scientific, Cat #NC9801605) or 24 h (IL-1β, Fisher Scientific, Cat #ENRIL1BI) at 37° C. in a humidified tissue-culture incubator. After a brief centrifugation at 1000 rpm for 5 minutes, 5 μl of culture medium was used for the measurement of the TNFα amount using TNFα (human) AlphaLISA Detection Kit (PerkinElmer, Cat #AL208C) according to manufacturer's protocol. A biotinylated anti-TNFα antibody binds to the Streptavidin-coated Donor beads while another anti-TNFα antibody is conjugated to AlphaLISA Acceptor beads. In the presence of the TNFα, the beads come into close proximity. The excitation of the Donor beads causes the release of singlet oxygen molecules that triggers a cascade of energy transfer in the Acceptor beads, resulting in a sharp peak of light emission at 615 nm. AlphaLISA assay plates were read using PHERAstar. Percentage of inhibition was calculated as below:
as §1
The 0% inhibition value comes from the Reading of Positive Control wells having 0 nM compound. The 100% inhibition value comes from the Reading of Negative Control wells having no R848 or IL-1β.

[3] = human PBMCs stimulated by IL-1β (10 ng/ml), 24 h, read-out: IRAK4 PBMC AlphaLISA IL-1β (IC50)
[4] = human PBMCs stimulated by R848 (0.5 μM), 4 h, read-out: IRAK4 PBMC AlphaLISA R848 (IC50)

Compound: CC[C@@H]1[C@H](F)C(=O)N[C@@H]1COc1ncc(C#C[C@@H](C)O)c2cc(C(N)=O)c(OC)cc12 [Example 19, 1-(((2S,3S,4S)-3-ethyl-4-fluoro-5-oxopyrrolidin-2-yl)methoxy)-4-((R)-3-hydroxybut-1-yn-1-yl)-7-methoxyisoquinoline-6-carboxamide]
- IC50 [1]: 13 nM
- IRAK4 Biochemical Assay Max Inhibition (%) [1]: 100.0%
- IC50 [2, 3]: 1.3 nM
- IC50 [2, 4]: 3 nM

Compound: CC[C@@H]1[C@H](F)C(=O)N[C@@H]1COc1ncc(C#Cc2cn[nH]c2)c2cc(C(N)=O)c(OC)cc12 [Example 20, 4-((1H-pyrazol-4-yl)ethynyl)-1-(((2S,3S,4S)-3-ethyl-4-fluoro-5-oxopyrrolidin-2-yl)methoxy)-7-methoxyisoquinoline-6-carboxamide]
- IC50 [1]: 22 nM
- IRAK4 Biochemical Assay Max Inhibition (%) [1]: 100.0%
- IC50 [2, 3]: 1.7 nM
- IC50 [2, 4]: 3 nM

Compound: CC[C@@H]1[C@H](F)C(=O)N[C@@H]1COc1ncc(C#Cc2nnn(C)n2)c2cc(C(N)=O)c(OC)cc12 [Example 21, 1-(((2S,3S,4S)-3-ethyl-4-fluoro-5-oxopyrrolidin-2-yl)methoxy)-7-methoxy-4-((2-methyl-2H-tetrazol-5-yl)ethynyl)isoquinoline-6-carboxamide]
- IC50 [1]: 22 nM
- IRAK4 Biochemical Assay Max Inhibition (%) [1]: 98.0%
- IC50 [2, 3]: 4.6 nM
- IC50 [2, 4]: 3.1 nM

Compound: CC[C@@H]1[C@H](F)C(=O)N[C@@H]1COc1ncc(C#Cc2ccncc2)c2cc(C(N)=O)c(OC)cc12 [Example 22, 1-(((2S,3S,4S)-3-ethyl-4-fluoro-5-oxopyrrolidin-2-yl)methoxy)-7-methoxy-4-(pyridin-4-ylethynyl)isoquinoline-6-carboxamide]
- IC50 [1]: 23 nM
- IRAK4 Biochemical Assay Max Inhibition (%) [1]: 100.0%
- IC50 [2, 3]: 0.8 nM
- IC50 [2, 4]: 3.4 nM

Compound: CC[C@@H]1[C@H](F)C(=O)N[C@@H]1COc1ncc(C#CCOC)c2cc(C(N)=O)c(OC(C)C)cc12 [Example 25, 1-(((2S,3S,4S)-3-ethyl-4-fluoro-5-oxopyrrolidin-2-yl)methoxy)-7-isopropoxy-4-(3-methoxyprop-1-yn-1-yl)isoquinoline-6-carboxamide]
- IC50 [1]: 27 nM
- IRAK4 Biochemical Assay Max Inhibition (%) [1]: 103.0%
- IC50 [2, 3]: 3.9 nM
- IC50 [2, 4]: 5 nM

Compound: CC[C@@H]1[C@H](F)C(=O)N[C@@H]1COc1ncc(C#Cc2ccccc2)c2cc(C(N)=O)c(OC)cc12 [Example 27, 1-(((2S,3S,4S)-3-ethyl-4-fluoro-5-oxopyrrolidin-2-yl)methoxy)-7-methoxy-4-(phenylethynyl)isoquinoline-6-carboxamide]
- IC50 [1]: 24 nM
- IRAK4 Biochemical Assay Max Inhibition (%) [1]: 100.0%
- IC50 [2, 3]: 1.8 nM
- IC50 [2, 4]: 5.3 nM

Compound: CC[C@@H]1[C@H](F)C(=O)N[C@@H]1COc1ncc(C#CC(C)(C)OC)c2cc(C(N)=O)c(OC)cc12 [Example 28, 1-(((2S,3S,4S)-3-ethyl-4-fluoro-5-oxopyrrolidin-2-yl)methoxy)-7-methoxy-4-(3-methoxy-3-methylbut-1-yn-1-yl)isoquinoline-6-carboxamide]
- IC50 [1]: 37 nM
- IRAK4 Biochemical Assay Max Inhibition (%) [1]: 100.0%
- IC50 [2, 3]: 9.2 nM
- IC50 [2, 4]: 5.5 nM

Compound: CC[C@@H]1[C@H](F)C(=O)N[C@@H]1COc1ncc(C#CC(C)(C)O)c2cc(C(N)=O)c(OC(C)C)cc12 [Example 29, 1-(((2S,3S,4S)-3-ethyl-4-fluoro-5-oxopyrrolidin-2-yl)methoxy)-4-(3-hydroxyl-3-methylbut-1-yn-1-yl)-7-isopropoxyisoquinoline-6-carboxamide]
- IC50 [1]: 26 nM
- IRAK4 Biochemical Assay Max Inhibition (%) [1]: 100.0%
- IC50 [2, 3]: 3.5 nM
- IC50 [2, 4]: 6.7 nM

Compound: CC[C@@H]1[C@H](F)C(=O)N[C@@H]1COc1ccc(C#CC(C)(C)O)c2cc(C(N)=O)c(OC)cc12 [Example 31, 5-(((2S,3S,4S)-3-ethyl-4-fluoro-5-oxopyrrolidin-2-yl)methoxy)-8-(3-hydroxyl-3-methylbut-1-yn-1-yl)-3-methoxy-2-naphthamide]
- IC50 [1]: 32 nM
- IRAK4 Biochemical Assay Max Inhibition (%) [1]: 95.0%
- IC50 [2, 3]: 5.6 nM
- IC50 [2, 4]: 8.3 nM

Compound: CC[C@@H]1[C@H](F)C(=O)N[C@@H]1COc1ncc(C#CC(C)(C)C)c2cc(C(N)=O)c(OC)cc12 [Example 32, 4-(3,3-dimethylbut-1-yn-1-yl)-1-(((2S,3S,4S)-3-ethyl-4-fluoro-5-oxopyrrolidin-2-yl)methoxy)-7-methoxyisoquinoline-6-carboxamide]
- IC50 [1]: 45 nM
- IRAK4 Biochemical Assay Max Inhibition (%) [1]: 99.0%
- IC50 [2, 3]: 17 nM
- IC50 [2, 4]: 11 nM

Compound: CC[C@@H]1[C@H](F)C(=O)N[C@@H]1COc1ccc(C#CC(C)(C)N(C)C)c2cc(C(N)=O)c(OC)cc12 [Example 33, 8-(3-(dimethylamino)-3-methylbut-1-yn-1-yl)-5-(((2S,3S,4S)-3-ethyl-4-fluoro-5-oxopyrrolidin-2-yl)methoxy)-3-methoxy-2-naphthamide]
- IC50 [1]: 13 nM
- IRAK4 Biochemical Assay Max Inhibition (%) [1]: 99.0%
- IC50 [2, 3]: 41 nM
- IC50 [2, 4]: 25 nM

Compound: CC[C@@H]1[C@H](F)C(=O)N[C@@H]1COc1ncc(C#CC(C)(C)N(C)C)c2cc(C(N)=O)c(OC)cc12 [Example 34, 4-(3-(dimethylamino)-3-methylbut-1-yn-1-yl)-1-(((2S,3S,4S)-3-ethyl-4-fluoro-5-oxopyrrolidin-2-yl)methoxy)-7-methoxyisoquinoline-6-carboxamide]
- IC50 [1]: 8.9 nM
- IRAK4 Biochemical Assay Max Inhibition (%) [1]: 92.0%
- IC50 [2, 3]: 46 nM
- IC50 [2, 4]: 32 nM

Compound: CC[C@@H]1[C@H](F)C(=O)N[C@@H]1COc1ncc(C#CC(C)(C)N(C)C)c2cc(C(N)=O)c(OC(C)C)cc12 [Example 35, 4-(3-(dimethylamino)-3-methylbut-1-yn-1-yl)-1-(((2S,3S,4S)-3-ethyl-4-fluoro-5-oxopyrrolidin-2-yl)methoxy)-7-isopropoxyisoquinoline-6-carboxamide]
- IC50 [1]: 39 nM
- IRAK4 Biochemical Assay Max Inhibition (%) [1]: 93.0%
- IC50 [2, 3]: 110 nM
- IC50 [2, 4]: 36 nM
